What was measured:
[1] = target: T1, human β3 adrenergic receptor (Homo sapiens, UniProt P13945); assay: cAMP accumulation (SPA) in CHO cells transfected with human β3 adrenergic receptor; type: cell-based; conditions: for EC50: CHO cells expressing human β3-AR, cAMP, 30 min incubation, 10^−9 M to 10^−5 M, read-out: beta-3 EC50; for beta-3 (IA) maximal response relative to isoproterenol: IA = % activity compound / % activity isoproterenol at 10^−5 M, CHO human β3 cells
T1 construct: Full length β3 AR clones (402 amino acids) containing the last 6 amino acids of hβ3— AR are prepared; expressed in transfected cells; host or cells: CHO cells
Procedure, shortened: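 CHO cells expressing human β3-AR (70–110 fmol/mg protein) treated with compound at 10^−9 to 10^−5 M in DMEM with 250 μM IBMX and 1 mM ascorbic acid, 30 min, 37 °C. cAMP measured by SPA; EC50 derived, and intrinsic activity expressed relative to the maximal response of 10^−5 M isoproterenol.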

[2] = target: T2, human β2-adrenergic receptor (Homo sapiens, UniProt P07550); assay: cAMP accumulation (SPA) in CHO cells transfected with human β2 adrenergic receptor; type: cell-based; conditions: for EC50: CHO cells transfected with human β2-AR, cAMP, 15 min incubation, 10^−8 to 10^−4 M, read-out: beta-2 EC50; for beta-2 (IA) maximal response relative to isoproterenol: IA = % activity compound / % activity isoproterenol at 10^−5 M, CHO human β2 cells
T2 construct: expressed in transfected cells; host or cells: CHO cells
Procedure, shortened: (§1)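 CHO cell clones expressing 70–110 fmol/mg protein of receptor were pre-incubated 30 min at 37 °C, then treated 15 min at 37 °C with compound (10^−8 to 10^−4 M) in DMEM with 250 μM IBMX and 1 mM ascorbic acid. cAMP was read by SPA after acid stop. EC50 and IA were expressed relative to maximal 10^−5 M isoproterenol response.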

[3] = target: T3, human β1-adrenergic receptor (Homo sapiens, UniProt P08588); assay: cAMP accumulation (SPA) in CHO cells transfected with human β1 adrenergic receptor; type: cell-based; conditions: for EC50: CHO cells transfected with human β1-AR, cAMP, 15 min incubation, 10^−8 to 10^−4 M, read-out: beta-1 EC50; for beta-1 (IA) maximal response relative to isoproterenol: IA = % activity compound / % activity isoproterenol at 10^−5 M, CHO human β1 cells
T3 construct: expressed in transfected cells; host or cells: CHO cells
Procedure, shortened: as §1

T3 sequence (P08588 whole entry): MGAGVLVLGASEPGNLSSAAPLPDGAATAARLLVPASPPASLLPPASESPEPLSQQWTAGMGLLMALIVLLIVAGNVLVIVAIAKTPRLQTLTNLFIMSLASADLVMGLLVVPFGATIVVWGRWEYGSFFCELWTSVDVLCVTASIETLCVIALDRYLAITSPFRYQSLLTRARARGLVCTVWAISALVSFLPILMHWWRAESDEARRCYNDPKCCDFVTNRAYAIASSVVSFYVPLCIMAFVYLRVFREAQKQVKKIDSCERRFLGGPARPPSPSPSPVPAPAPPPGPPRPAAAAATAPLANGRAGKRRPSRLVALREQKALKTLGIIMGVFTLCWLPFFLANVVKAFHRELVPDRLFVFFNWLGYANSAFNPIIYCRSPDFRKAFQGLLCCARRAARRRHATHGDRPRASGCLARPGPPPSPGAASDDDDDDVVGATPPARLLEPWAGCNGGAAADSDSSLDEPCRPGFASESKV
T1 sequence (P13945 whole entry): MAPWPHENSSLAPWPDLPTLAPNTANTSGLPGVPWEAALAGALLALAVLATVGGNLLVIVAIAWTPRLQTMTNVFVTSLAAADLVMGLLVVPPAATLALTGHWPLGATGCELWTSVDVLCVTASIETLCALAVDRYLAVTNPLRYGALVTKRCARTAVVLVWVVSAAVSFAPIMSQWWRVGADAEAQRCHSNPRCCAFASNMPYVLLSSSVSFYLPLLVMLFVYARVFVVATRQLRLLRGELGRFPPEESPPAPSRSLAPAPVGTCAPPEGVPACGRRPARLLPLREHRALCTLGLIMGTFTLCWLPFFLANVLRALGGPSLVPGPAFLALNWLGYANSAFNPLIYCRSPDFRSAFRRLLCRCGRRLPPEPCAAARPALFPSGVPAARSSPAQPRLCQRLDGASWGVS
T2 sequence (P07550 whole entry): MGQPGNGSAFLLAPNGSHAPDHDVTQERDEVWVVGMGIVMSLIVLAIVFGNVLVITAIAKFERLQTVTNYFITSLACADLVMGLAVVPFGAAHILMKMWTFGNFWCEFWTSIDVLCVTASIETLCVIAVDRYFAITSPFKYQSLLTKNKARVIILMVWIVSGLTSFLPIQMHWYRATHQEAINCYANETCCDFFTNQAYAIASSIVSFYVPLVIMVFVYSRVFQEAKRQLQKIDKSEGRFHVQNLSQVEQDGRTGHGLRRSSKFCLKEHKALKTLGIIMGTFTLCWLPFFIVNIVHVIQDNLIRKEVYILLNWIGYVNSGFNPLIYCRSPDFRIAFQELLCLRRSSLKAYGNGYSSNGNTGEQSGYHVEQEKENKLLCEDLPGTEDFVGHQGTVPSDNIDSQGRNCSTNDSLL

Compound	EC50 [1]	beta-3 (IA) maximal response relative to isoproterenol [1]	EC50 [2]	beta-2 (IA) maximal response relative to isoproterenol [2]	EC50 [3]	beta-1 (IA) maximal response relative to isoproterenol [3]	melting point
Cc1ccc(S(=O)(=O)c2ccc(N3CCC(NCC(O)c4ccc(O)c(NS(C)(=O)=O)c4)CC3)cc2)cc1 (centres unmarked) [Example 45, N-[2-Hydroxy-5-(1-hydroxy-2-{1-[4-(toluene-4-sulfonyl)-phenyl]-piperidin-4-ylamino}-ethyl)-phenyl]-methanesulfonamide]	1 nM	(1)	700 nM	(0.63)	20 nM	(0.74)	115 to 118 °C
CCOC(=O)NC(=O)CNS(=O)(=O)c1ccc(N2CCC(NC[C@H](O)c3ccc(O)c(NS(C)(=O)=O)c3)CC2)cc1 [Example 58, Ethyl 2-{[(4-{4-[((2R)-2-Hydroxy-2-{4-hydroxy-3-((methylsulfonyl)amino]-phenyl}ethyl)amino]piperidin-1-yl}phenyl)sulfonyl]amino}acetylcarbamate]	11 nM	(1)	3900 nM	(0.31)	3600 nM	(0.65)	98 to 105 °C
CCCCN(CC(=O)OCC)S(=O)(=O)c1ccc(N2CCC(NC[C@H](O)c3ccc(O)c(NS(C)(=O)=O)c3)CC2)cc1 [Example 23, [Butyl-(4-{4-[(2R)-2-hydroxy-2-(4-hydroxy-3-methanesulfonylamino-phenyl)-ethylamino]-piperidin-1-yl}-benzenesulfonyl)-amino]-acetic Acid Ethyl Ester]	16 nM	(1)	1670 nM	(0.89)	1320 nM	(0.68)	94 to 95 °C
CCCCN(CC(=O)OCc1ccccc1)S(=O)(=O)c1ccc(N2CCC(NC[C@H](O)c3ccc(O)c(NS(C)(=O)=O)c3)CC2)cc1 [Example 19, [Butyl-(4-{4-[(2R)-2-hydroxy-2-(4-hydroxy-3-methanesulfonylamino-phenyl)-ethylamino]-piperidin-1-yl}-benzenesulfonyl)-amino]-acetic Acid Benzyl Ester]	7 nM	(1)		(0.2)	790 nM	(0.54)	59 to 64 °C
CC(C)(C)OC(=O)CN(CC(=O)OC(C)(C)C)S(=O)(=O)c1ccc(N2CCC(NC[C@H](O)c3ccc(O)c(NS(C)(=O)=O)c3)CC2)cc1 [Example 54, tert-Butyl 2-{[2-(tert-butoxy)-2-oxoethyl][(4-{4-[((2R)-2-hydroxy-2-{4-hydroxy-3-[(methylsulfonyl)amino]phenyl}ethyl)amino]-1-piperidinyl}-phenyl)sulfonyl]amino}acetate]	14 nM	(1.2)	12000 nM	(0.42)	2300 nM	(0.33)	164 to 166 °C
CC(C)OC(=O)C1CCCN1S(=O)(=O)c1ccc(N2CCC(NCC(O)COc3cccc4[nH]c(=O)[nH]c34)CC2)cc1 (centres unmarked) [Example 16, 1-(4-{4-[2-Hydroxy-3-(2-oxo-2,3-dihydro-1H-benzoimidazol-4-yloxy)-propylamino]-piperidin-1-yl}-benzenesulfonyl)-pyrrolidine-2-carboxylic Acid Isopropyl Ester]	3 nM	(0.86)					74 to 83 °C
CS(=O)(=O)Nc1cc([C@@H](O)CNC2CCN(c3ccc(S(=O)(=O)N4CCC[C@H]4C(=O)OCc4ccccc4)cc3)CC2)ccc1O [Example 22, (2S)-1-(4-{4-[(2R)-2-Hydroxy-2-(4-hydroxy-3-methanesulfonylamino-phenyl)-ethylamino]-piperidin-1-yl}-benzenesulfonyl)-pyrrolidine-2-carboxylic Acid Benzyl Ester]	2 nM	(1)	40 nM	(0.63)	200 nM	(1.08)	65 to 71 °C
COC(=O)N(CC(=O)OC(C)(C)C)S(=O)(=O)c1ccc(N2CCC(NC[C@H](O)c3ccc(O)c(NS(C)(=O)=O)c3)CC2)cc1 [Example 59, tert-Butyl [[(4-{4-[((2R)-2-Hydroxy-2-{4-hydroxy-3-[(methylsulfonyl)amino]-phenyl}ethyl)amino]piperidin-1-yl}phenyl)sulfonyl](methoxycarbonyl)-amino]acetate]	15 nM	(0.98)	12000 nM	(0.2)	7800 nM	(0.52)	110 to 115 °C
CCCCNS(=O)(=O)c1ccc(N2CCC(NC[C@H](O)COc3cccc4[nH]c5ccccc5c34)CC2)cc1 [Example 13, N-Butyl-4-{4-[(2S)-3-(9H-carbazol-4-yloxy)-2-hydroxy-propylamino]-piperidin-1-yl}-benzenesulfonamide]	50 nM	(0.7)					166 to 179 °C
O=C1CN(S(=O)(=O)c2ccc(N3CCC(NC[C@H](O)COc4cccc5[nH]c(=O)[nH]c45)CC3)cc2)C(=O)N1 [Example 49, 1-(4-{4-[(2S)-2-Hydroxy-3-(2-oxo-2,3-dihydro-1H-benzoimidazol-4-yloxy)-propylamino]-piperidin-1-yl}-benzenesulfonyl)-imidazolidine-2,4-dione]	9 nM	(0.96)					230 °C (dec.)
CCCCNS(=O)(=O)c1ccc(N2CCC(NC[C@H](O)COc3cccc4[nH]c(=O)[nH]c34)CC2)cc1 [Example 12, N-Butyl-4-{4-[(2S)-2-hydroxy-3-(2-oxo-2,3-dihydro-1H-benzoimidazol-4-yloxy)-propylamino]-piperidin-1-yl}-benzenesulfonamide]	10 nM	(1)					69 to 75 °C
CC(C)(C)OC(=O)CNS(=O)(=O)c1ccc(N2CCC(NC[C@H](O)c3ccc(O)c(NS(C)(=O)=O)c3)CC2)cc1 [Example 52, tert-Butyl 2-{[(4-{4-[((2R)-2-hydroxy-2-{4-hydroxy-3-[(methylsulfonyl)amino]-phenyl}ethyl)amino]-1-piperidinyl}phenyl)sulfonyl]amino}acetate]	6 nM	(1)	480 nM	(0.65)	960 nM	(0.48)	113 to 115 °C
CCOC(=O)CNS(=O)(=O)c1ccc(N2CCC(NC[C@H](O)c3ccc(O)c(NS(C)(=O)=O)c3)CC2)cc1 [Example 56, Ethyl 2-{[(4-{4-[((2R)-2-Hydroxy-2-{4-hydroxy-3-[(methylsulfonyl)amino]-phenyl}ethyl)amino]-1-piperidinyl}phenyl)sulfonyl]amino}acetate]	14 nM	(1)	1600 nM	(0.27)	9500 nM	(0.31)	105 to 107 °C
CNC(=O)C1CCCN1S(=O)(=O)c1ccc(N2CCC(NC[C@H](O)COc3cccc4[nH]c(=O)[nH]c34)CC2)cc1 (stereo partly drawn) [Example 17, 1-(4-{4-[(2S)-2-Hydroxy-3-(2-oxo-2,3-dihydro-1H-benzoimidazol-4-yloxy)-propylamino]-piperidin-1-yl}-benzenesulfonyl)-pyrrolidine-2-carboxylic Acid Methylamide]	28 nM	(0.81)					36 to 39 °C
COc1ccc(NS(=O)(=O)c2ccc(N3CCC(NC[C@H](O)COc4cccc5[nH]c6ccccc6c45)CC3)cc2)cc1OC [Example 10, 4-{4-[(2S)-3-(9H-Carbazol-4-yloxy)-2-hydroxy-propylamino]-piperidin-1-yl}-N-(3,4-dimethoxy-phenyl)-benzenesulfonamide]	100 nM	(0.45)					58 to 64 °C
Cc1ccc(S(=O)(=O)c2ccc(N3CCC(NC[C@H](O)COc4cccc5[nH]c(=O)[nH]c45)CC3)cc2)cc1 [Example 46, 4-((2S)-2-Hydroxy-3-{1-[4-(toluene-4-sulfonyl)-phenyl]-piperidin-4-ylamino}-propoxy)-1,3-dihydro-benzoimidazol-2-one]	9 nM	(1.1)					130 to 132 °C

Source: patent publication US6444685B1, “N-(4-sulfonylaryl)Cyclylamine 2-hydroxyethylamines as beta-3 adrenergic receptor agonists” (Wyeth, priority 2000, dated 2002)
